Test results reported in patent US10131652B2, “Pyrimidinyloxy benzene derivatives as herbicides” (E. I. DU PONT DE NEMOURS AND COMPANY, priority 2014, dated 2018).
Read-outs that look alike come from different tables or passages of the source.

What was measured:
Assay in all cases: Test E pre-/postemergence plant response
Format in all cases: in vivo
[1] = tested on: deadnettle (henbit deadnettle, Lamium amplexicaule); conditions: scale 0 to 100, read-out: Plant response rating, Deadnettle; for pest or weed control at 16 g/ha: 16 g ai/ha; for pest or weed control at 31 g/ha: 31 g ai/ha; for pest or weed control at 62 g/ha: 62 g ai/ha; for pest or weed control at 125 g/ha: 125 g ai/ha
How it was run: (§1)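 Visual scores on a 0–100 scale (100 = complete control) were assigned against untreated controls 7–21 days after treatment in a controlled environment. Compounds, formulated with solvent plus surfactant, were applied to pre-emergence silt-loam sowings or to 1- to 4-leaf plants (2–18 cm) in potting medium.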

[2] = tested on: field poppy (Papaver rhoeas); conditions: scale 0 to 100, read-out: Plant response rating, Field Poppy; for pest or weed control at 16 g/ha: 16 g ai/ha; for pest or weed control at 31 g/ha: 31 g ai/ha; for pest or weed control at 62 g/ha: 62 g ai/ha; for pest or weed control at 125 g/ha: 125 g ai/ha
How it was run: as §1

[3] = tested on: lambsquarters (Chenopodium album); conditions: scale 0 to 100, read-out: Plant response rating, Lambsquarters; for pest or weed control at 16 g/ha: 16 g ai/ha; for pest or weed control at 31 g/ha: 31 g ai/ha; for pest or weed control at 62 g/ha: 62 g ai/ha; for pest or weed control at 125 g/ha: 125 g ai/ha
How it was run: as §1

[4] = tested on: spring barley (Hordeum vulgare); conditions: for plant injury at 16 g/ha: 16 g ai/ha; for plant injury at 31 g/ha: 31 g ai/ha; for plant injury at 62 g/ha: 62 g ai/ha; for plant injury at 125 g/ha: 125 g ai/ha
How it was run: as §1

[5] = tested on: field violet (Viola arvensis); conditions: scale 0 to 100, read-out: Plant response rating, Field Violet; for pest or weed control at 16 g/ha: 16 g ai/ha; for pest or weed control at 31 g/ha: 31 g ai/ha; for pest or weed control at 62 g/ha: 62 g ai/ha; for pest or weed control at 125 g/ha: 125 g ai/ha
How it was run: as §1

[6] = tested on: blackgrass (Alopecurus myosuroides); conditions: scale 0 to 100, read-out: Plant response rating, Blackgrass; for pest or weed control at 16 g/ha: 16 g ai/ha; for pest or weed control at 31 g/ha: 31 g ai/ha; for pest or weed control at 62 g/ha: 62 g ai/ha; for pest or weed control at 125 g/ha: 125 g ai/ha
How it was run: as §1

[7] = tested on: speedwell (bird's-eye speedwell, Veronica persica); conditions: scale 0 to 100, read-out: Plant response rating, Speedwell; for pest or weed control at 16 g/ha: 16 g ai/ha; for pest or weed control at 62 g/ha: 62 g ai/ha; for pest or weed control at 125 g/ha: 125 g ai/ha
How it was run: as §1

[8] = tested on: winter wheat (Triticum aestivum); conditions: scale 0 to 100, read-out: Plant response rating, Wheat, Winter; for plant injury at 16 g/ha: 16 g ai/ha; for plant injury at 62 g/ha: 62 g ai/ha; for plant injury at 125 g/ha: 125 g ai/ha
How it was run: as §1

[9] = tested on: spring wheat (Triticum aestivum); conditions: scale 0 to 100, read-out: Plant response rating, Wheat, Spring; for plant injury at 16 g/ha: 16 g ai/ha; for plant injury at 62 g/ha: 62 g ai/ha; for plant injury at 125 g/ha: 125 g ai/ha
How it was run: as §1

wild oat (Avena fatua) = conditions: scale 0 to 100, read-out: Plant response rating, Oat, Wild; for pest or weed control at 16 g/ha: 16 g ai/ha; for pest or weed control at 31 g/ha: 31 g ai/ha; for pest or weed control at 62 g/ha: 62 g ai/ha; for pest or weed control at 125 g/ha: 125 g ai/ha
How it was run: as §1

[10] = tested on: canarygrass (Phalaris minor); conditions: scale 0 to 100, read-out: Plant response rating, Canarygrass; for pest or weed control at 16 g/ha: 16 g ai/ha; for pest or weed control at 31 g/ha: 31 g ai/ha; for pest or weed control at 62 g/ha: 62 g ai/ha; for pest or weed control at 125 g/ha: 125 g ai/ha
How it was run: as §1

[11] = post-emergence, Postemergence, scale 0 to 100, read-out: Plant response rating, Barley, Spring
[12] = pre-emergence, Preemergence, scale 0 to 100, read-out: Plant response rating, Barley, Spring
[13] = post-emergence, 31 g ai/ha, Postemergence

## Fc1cccc(Oc2ncc(Br)cn2)c1-c1cc(C(F)F)no1 [Compound 145, 5-bromo-2-[2-[3-(difluoromethyl)-5-isoxazolyl]-3-fluorophenoxy]pyrimidine]
[1]; post-emergence, Postemergence
  pest or weed control at 16 g/ha: 100%
  pest or weed control at 31 g/ha: 100%
  pest or weed control at 62 g/ha: 100%
  pest or weed control at 125 g/ha: 100%
[1]; pre-emergence, Preemergence
  pest or weed control at 16 g/ha: 0%
  pest or weed control at 31 g/ha: 100%
  pest or weed control at 62 g/ha: 100%
  pest or weed control at 125 g/ha: 100%
[2]; post-emergence, Postemergence
  pest or weed control at 16 g/ha: 100%
  pest or weed control at 31 g/ha: 100%
  pest or weed control at 62 g/ha: 100%
  pest or weed control at 125 g/ha: 100%
[2]; pre-emergence, Preemergence
  pest or weed control at 16 g/ha: 100%
  pest or weed control at 31 g/ha: 100%
  pest or weed control at 62 g/ha: 100%
  pest or weed control at 125 g/ha: 100%
[3]; post-emergence, Postemergence
  pest or weed control at 16 g/ha: 90%
  pest or weed control at 31 g/ha: 90%
  pest or weed control at 62 g/ha: 95%
  pest or weed control at 125 g/ha: 95%
[3]; pre-emergence, Preemergence
  pest or weed control at 16 g/ha: 100%
  pest or weed control at 31 g/ha: 100%
  pest or weed control at 62 g/ha: 100%
  pest or weed control at 125 g/ha: 100%
[4]; [11]
  plant injury at 16 g/ha: 15%
  plant injury at 31 g/ha: 15%
  plant injury at 62 g/ha: 20%
[4]; post-emergence, Postemergence, scale 0 to 100 (0 no effect, 100 complete control), read-out: Plant response rating, Barley, Spring
  plant injury at 125 g/ha: 30%
[4]; [12]
  plant injury at 16 g/ha: 15%
  plant injury at 31 g/ha: 25%
  plant injury at 62 g/ha: 45%
  plant injury at 125 g/ha: 80%
[5]; post-emergence, Postemergence
  pest or weed control at 16 g/ha: 65%
  pest or weed control at 31 g/ha: 100%
  pest or weed control at 62 g/ha: 90%
  pest or weed control at 125 g/ha: 100%
[5]; pre-emergence, Preemergence
  pest or weed control at 16 g/ha: 100%
  pest or weed control at 31 g/ha: 100%
  pest or weed control at 62 g/ha: 100%
  pest or weed control at 125 g/ha: 100%
[6]; post-emergence, Postemergence
  pest or weed control at 16 g/ha: 25%
  pest or weed control at 31 g/ha: 35%
  pest or weed control at 62 g/ha: 65%
  pest or weed control at 125 g/ha: 80%
[6]; pre-emergence, Preemergence
  pest or weed control at 16 g/ha: 10%
  pest or weed control at 31 g/ha: 50%
  pest or weed control at 62 g/ha: 60%
  pest or weed control at 125 g/ha: 75%
[7]; post-emergence, Postemergence
  pest or weed control at 16 g/ha: 100%
  pest or weed control at 62 g/ha: 100%
  pest or weed control at 125 g/ha: 100%
[7]; [13]
  pest or weed control at 31 g/ha: 100%
[7]; pre-emergence, Preemergence
  pest or weed control at 16 g/ha: 95%
  pest or weed control at 62 g/ha: 100%
  pest or weed control at 125 g/ha: 100%
[8]; post-emergence, Postemergence
  plant injury at 16 g/ha: 15%
  plant injury at 62 g/ha: 35%
  plant injury at 125 g/ha: 55%
[8]; [13]
  plant injury at 31 g/ha: 20%
[8]; pre-emergence, Preemergence
  plant injury at 16 g/ha: 0%
  plant injury at 62 g/ha: 25%
  plant injury at 125 g/ha: 75%
[9]; post-emergence, Postemergence
  plant injury at 16 g/ha: 30%
  plant injury at 62 g/ha: 45%
  plant injury at 125 g/ha: 55%
[9]; [13]
  plant injury at 31 g/ha: 35%
[9]; pre-emergence, Preemergence
  plant injury at 16 g/ha: 15%
  plant injury at 62 g/ha: 20%
  plant injury at 125 g/ha: 70%
Wild oat (Avena fatua); post-emergence, Postemergence
  pest or weed control at 16 g/ha: 15%
  pest or weed control at 31 g/ha: 30%
  pest or weed control at 62 g/ha: 40%
  pest or weed control at 125 g/ha: 80%
Wild oat (Avena fatua); pre-emergence, Preemergence
  pest or weed control at 16 g/ha: 25%
  pest or weed control at 31 g/ha: 30%
  pest or weed control at 62 g/ha: 30%
  pest or weed control at 125 g/ha: 85%
[10]; post-emergence, Postemergence
  pest or weed control at 16 g/ha: 15%
  pest or weed control at 31 g/ha: 25%
  pest or weed control at 62 g/ha: 40%
  pest or weed control at 125 g/ha: 65%
[10]; pre-emergence, Preemergence
  pest or weed control at 16 g/ha: 40%
  pest or weed control at 31 g/ha: 75%
  pest or weed control at 62 g/ha: 100%
  pest or weed control at 125 g/ha: 100%
